# Test results from US8183254B2, “Inhibitors of JNK” (Roche Palo Alto LLC, priority 2008, dated 2012).
# How the values were obtained:
# Human JNK1α1 = Human JNK1α1 (Homo sapiens, UniProt P45983); test: JNK assay in vitro (phosphorylation of GST-ATF2 with [γ-33P] ATP), JNK1; assay type: biochemical; conditions: Km concentrations of ATP and substrate
# Protocol: (§1) JNK activity was measured by phosphorylation of GST-ATF2 (19-96) with [γ-^33P] ATP. […] Human JNK2α2 assay contains 1 nM enzyme, 1 μM ATF2, 8 μM ATP with 1 uCi [γ-^33P] ATP. Human JNK1α1 assay contains 2 nM enzyme, 1 μM ATF2, 6 μM ATP with 1 μCi [γ-^33P] ATP. Human JNK3 Upstate Biotech #14-501M) assay contains 2 nM enzyme, 1 μM ATF2, 4 μM ATP with 1 μCi [γ-^33P] ATP. The enzyme assay was carried out in the presence or absence of several compound concentrations. JNK and compound were pre-incubated for 10 min., followed by initiation of the enzymatic reaction by adding ATP and the substrate. The reaction mixture was incubated at 30° C. for 30 min. At the end of incubation, the reaction was terminated by transferring 25 μl of the reaction mixture to 150 μl of 10% glutathione Sepharose® slurry (Amersham # 27-4574-01) containing 135 mM EDTA. The reaction product was captured on the affinity resin, and washed on a filtration plate (Millipore, MABVNOB50) with phosphate buffered saline for six times to remove free radionucleotide. The incorporation of ^33P into ATF2 was quantified on a microplate scintillation counter (Packard Topcount). Compound inhibition potency on JNK was measured by IC50 value generated from ten concentration inhibition curves fitted into the 3-parameter model: % inhibition=Maximum/(1+(IC50/[Inhibitor])^slope). Data were analyzed on Microsoft Excel for parameter estimation.
# Human JNK2α2 = Human JNK2α2 (Homo sapiens, UniProt P45984); test: JNK assay in vitro (phosphorylation of GST-ATF2 with [γ-33P] ATP), JNK2; assay type: biochemical; conditions: Km concentrations of ATP and substrate
# Protocol: as §1
# [1] = tested on: TNFα-induced IL-6 production; test: Rat in vivo TNFα-induced IL-6 production assay; conditions: oral gavage 30 min prior to TNF-α challenge, plasma IL-6 90 min after challenge, female Wistar-Han rats
# Protocol: Female Wistar-Han rats procured from Charles River Laboratories were allowed to acclimate for one week prior to use and achieve an approximate body weight of 101-130 g. Rats were administered test compound (N=8 per compound) via oral gavage 30 min prior to an intraperitoneal challenge of 0.5 μg recombinant rat TNF-α (Biosource). Blood was collected via cardiocentesis 90 min after TNF-α challenge. Plasma was prepared using lithium heparin separation tubes (BD microtainer) and frozen at −80° C. until analyzed. IL-6 levels were determined using a rat specific IL-6 ELISA kit (Biosource). The percent inhibition and ED50 values (calculated as the dose of compound at which […] is 50% of the control value) were determined.
# Chain of Human JNK1α1 (P45983 1-384 isoform P45983-2): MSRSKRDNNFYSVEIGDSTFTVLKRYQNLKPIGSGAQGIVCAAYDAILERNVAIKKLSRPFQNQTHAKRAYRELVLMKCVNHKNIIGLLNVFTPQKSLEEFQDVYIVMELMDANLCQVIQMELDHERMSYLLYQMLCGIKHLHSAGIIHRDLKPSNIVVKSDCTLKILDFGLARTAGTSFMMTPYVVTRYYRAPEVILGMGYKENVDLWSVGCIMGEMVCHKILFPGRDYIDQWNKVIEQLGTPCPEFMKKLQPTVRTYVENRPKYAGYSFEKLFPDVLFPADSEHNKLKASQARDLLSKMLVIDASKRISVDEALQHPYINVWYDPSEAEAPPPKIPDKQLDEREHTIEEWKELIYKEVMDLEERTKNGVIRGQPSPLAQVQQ
# Chain of Human JNK2α2 (P45984 whole entry): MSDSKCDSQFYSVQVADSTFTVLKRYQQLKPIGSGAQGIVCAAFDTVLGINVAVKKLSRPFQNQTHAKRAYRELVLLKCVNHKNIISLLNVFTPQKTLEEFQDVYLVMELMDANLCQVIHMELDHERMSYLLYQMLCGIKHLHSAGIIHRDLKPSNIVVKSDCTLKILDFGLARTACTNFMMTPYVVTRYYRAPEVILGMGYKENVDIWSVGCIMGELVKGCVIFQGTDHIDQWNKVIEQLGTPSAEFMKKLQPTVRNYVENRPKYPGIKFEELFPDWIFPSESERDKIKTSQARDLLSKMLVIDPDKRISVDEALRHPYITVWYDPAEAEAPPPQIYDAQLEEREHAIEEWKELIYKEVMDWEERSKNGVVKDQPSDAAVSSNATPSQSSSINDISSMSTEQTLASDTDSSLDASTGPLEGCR
IC50 (Human JNK1α1) [nM],IC50 (Human JNK2α2) [nM],melting point [°C],Compound,IL-6 Inhibition ([1]; dose 10 mg/Kg) [%],IL-6 Inhibition ([1]; dose 30 mg/Kg) [%]
10,40.5,105 to 107,"CN[C@H](C(=O)OC1CCN(C(=O)[C@H]2CC[C@H](Nc3nccc(-n4ccc5c(OCCCS(C)(=O)=O)cccc54)n3)CC2)CC1)C(C)C (stereo in doubt) [Compound I-15, (R)-3-Methyl-2-methylamino-butyric acid 1-(4-{4-[4-(3-methanesulfonyl-propoxy)-indol-1-yl]-pyrimidin-2-ylamino}-cyclohexanecarbonyl)-piperidin-4-yl ester]",–,–
9.4,40.8,202.2 to 203.2,C[C@H](N)C(=O)OC1CCN(C(=O)[C@H]2CC[C@H](Nc3nccc(-n4ccc5c(OCCCS(C)(=O)=O)cccc54)n3)CC2)CC1 [Compound I-1],–,–
6.8,34.7,219 to 220,"CC(C)(N)C(=O)OC1CCN(C(=O)[C@H]2CC[C@H](Nc3nccc(-n4ccc5c(OCCCS(C)(=O)=O)cccc54)n3)CC2)CC1 [Compound I-2, 2-Amino-2-methyl-propionic acid 1-(4-{4-[4-(3-methanesulfonyl-propoxy)-indol-1-yl]-pyrimidin-2-ylamino}-cyclohexanecarbonyl)-piperidin-4-yl ester]",–,–
11.6,51.9,137 to 138,"CC[C@H](C)[C@H](N)C(=O)OC1CCN(C(=O)[C@H]2CC[C@H](Nc3nccc(-n4ccc5c(OCCCS(C)(=O)=O)cccc54)n3)CC2)CC1 [Compound I-4, (2S,3S)-2-Amino-3-methyl-pentanoic acid 1-(4-{4-[4-(3-methanesulfonyl-propoxy)-indol-1-yl]-pyrimidin-2-ylamino}-cyclohexanecarbonyl)-piperidin-4-yl ester]",–,–
7.4,27.4,147 to 148,"CS(=O)(=O)CCCOc1cccc2c1ccn2-c1ccnc(N[C@H]2CC[C@H](C(=O)N3CCC(OC(=O)[C@@H]4CCCN4)CC3)CC2)n1 [Compound I-5, (S)-Pyrrolidine-2-carboxylic acid 1-(4-{4-[4-(3-methanesulfonyl-propoxy)-indol-1-yl]-pyrimidin-2-ylamino}-cyclohexanecarbonyl)-piperidin-4-yl ester]",–,–
10.5,40.2,163 to 164,"CC(C)[C@H](N)C(=O)OC1CCN(C(=O)[C@H]2CC[C@H](Nc3nccc(-n4ccc5c(OCCCS(C)(=O)=O)cccc54)n3)CC2)CC1 [Compound I-6, (S)-2-Amino-3-methyl-butyric acid 1-(4-{4-[4-(3-methanesulfonyl-propoxy)-indol-1-yl]-pyrimidin-2-ylamino}-cyclohexanecarbonyl)-piperidin-4-yl ester]",–,–
15,55,127 to 128,"CN1CCC[C@@H]1C(=O)OC1CCN(C(=O)[C@H]2CC[C@H](Nc3nccc(-n4ccc5c(OCCCS(C)(=O)=O)cccc54)n3)CC2)CC1 [Compound I-7, (R)-1-Methyl-pyrrolidine-2-carboxylic acid 1-(4-{4-[4-(3-methanesulfonyl-propoxy)-indol-1-yl]-pyrimidin-2-ylamino}-cyclohexanecarbonyl)-piperidin-4-yl ester]",–,–
23.8,67.6,177 to 178,"CN(C)CC(=O)OC1CCN(C(=O)[C@H]2CC[C@H](Nc3nccc(-n4ccc5c(OCCCS(C)(=O)=O)cccc54)n3)CC2)CC1 [Compound I-8, Dimethylamino-acid acid 1-(4-{4-[4-(3-methanesulfonyl-propoxy)-indol-1-yl]-pyrimidin-2-ylamino}-cyclohexanecarbonyl)-piperidin-4-yl ester]",28.9,40.2
15.3,50.9,182 to 183,"CN[C@@H](C)C(=O)OC1CCN(C(=O)[C@H]2CC[C@H](Nc3nccc(-n4ccc5c(OCCCS(C)(=O)=O)cccc54)n3)CC2)CC1 [Compound I-9, (S)-2-methylamino-propionic acid 1-(4-{4-[4-(3-methanesulfonyl-propoxy)-indol-1-yl]-pyrimidin-2-ylamino}-cyclohexanecarbonyl)-piperidin-4-yl ester]",28.1,49.1
–,–,150 to 200,"CC[C@H](C)[C@@H](N)C(=O)OC1CCN(C(=O)[C@H]2CC[C@H](Nc3nccc(-n4ccc5c(OCCCS(C)(=O)=O)cccc54)n3)CC2)CC1 [Compound I-10, (2R,3S)-2-Amino-3-methyl-pentanoic acid 1-(4-{4-[4-(3-methanesulfonyl-propoxy)-indol-1-yl]-pyrimidin-2-ylamino}-cyclohexanecarbonyl)-piperidin-4-yl ester]",–,–
34.7,115,147 to 148,"CC[C@@H](C)[C@@H](N)C(=O)OC1CCN(C(=O)[C@H]2CC[C@H](Nc3nccc(-n4ccc5c(OCCCS(C)(=O)=O)cccc54)n3)CC2)CC1 [Compound I-11, (2R,3R)-2-Amino-3-methyl-pentanoic acid 1-(4-{4-[4-(3-methanesulfonyl-propoxy)-indol-1-yl]-pyrimidin-2-ylamino}-cyclohexanecarbonyl)-piperidin-4-yl ester]",–,–
48.1,162,135 to 136,"COP(=O)(OC)OC1CCN(C(=O)[C@H]2CC[C@H](Nc3nccc(-n4ccc5c(OCCCS(C)(=O)=O)cccc54)n3)CC2)CC1 [Compound I-12, Phosphoric acid 1-(4-{4-[4-(3-methanesulfonyl-propoxy)-indol-1-yl]-pyrimidin-2-ylamino}-cyclohexanecarbonyl)-piperidin-4-yl ester dimethyl ester]",–,–
10.8,56.8,201.3 to 208.8,CS(=O)(=O)CCCOc1cccc2c1ccn2-c1ccnc(N[C@H]2CC[C@H](C(=O)N3CCC(OP(=O)(O)O)CC3)CC2)n1 [Compound I-13],–,–
27.9,67.9,214.2 to 217.7,CS(=O)(=O)CCCOc1cccc2c1ccn2-c1ccnc(N[C@H]2CC[C@H](C(=O)N3CCC(OC(=O)CCC(=O)O)CC3)CC2)n1 [Compound I-14],–,–
17.6,57.2,127 to 128,"CN1CCC[C@H]1C(=O)OC1CCN(C(=O)[C@H]2CC[C@H](Nc3nccc(-n4ccc5c(OCCCS(C)(=O)=O)cccc54)n3)CC2)CC1 [Compound I-27, (S)-1-Methyl-pyrrolidine-2-carboxylic acid 1-(4-{4-[4-(3-methanesulfonyl-propoxy)-indol-1-yl]-pyrimidin-2-ylamino}-cyclohexanecarbonyl)-piperidin-4-yl ester]",35.8,50.7
